Consider one molecule from PMC3790769, “Ansamitocin P3 Depolymerizes Microtubules and Induces Apoptosis by Binding to Tubulin at the Vinblastine Site” (PLoS ONE, 2013).

What is called Kd is the concentration at which binding is half-saturated. Low values mean a tighter complex, high ones a looser complex.

The target in this assay is T1, tubulin.
T1 construct: tubulin isolated from goat brain (alpha-beta dimer); with alpha-tubulin/beta-tubulin heterodimer
As to the kind of experiment: intrinsic tryptophan fluorescence quenching of purified tubulin; supported by reduced DTNB cysteine modification. It counts as binding, Capra hircus.

`COc1cc2cc(c1Cl)N(C)C(=O)C[C@H](OC(=O)C(C)C)[C@]1(C)O[C@H]1[C@H](C)[C@@H]1C[C@@](O)(NC(=O)O1)[C@H](OC)/C=C/C=C(\C)C2` [Ansamitocin P3] returned an equilibrium dissociation constant (Kd) of 1.3 ± 0.7 µM.
